# In patent publication US12280132B2, “Skin care composition” (The Procter & Gamble Company, priority 2021, dated 2025):
# What was measured:
# [1] = HCA Crystallization, freeze/thaw temperature cycling; format: physicochemical; conditions: Table 7; hydrotrope at stated level in 0.5% 4-HCA composition, formula pH 3.8
# Text: This method provides a way to determine HCA solubility in a composition by observing HCA crystals in situ. The method involves cycling the temperature of a test sample between freezing and thawing to imitate environmental conditions experienced by a skin care composition at an accelerated rate. This type of accelerated aging is commonly used in cosmetic product stability testing. HCA crystals can be detected using conventional means such as visual observation and microscopy.
# A bulk sample of at least 10 g (e.g., 20 g-60 g) of the composition to be tested is placed in a suitable container that enables visual observation of the test sample (e.g., transparent plastic or glass jar). The test sample is subjected to 1 month of freeze/thaw temperature cycling to simulate environmental conditions that a skin care product may experience during shipping and storage. This is sometimes referred to as accelerated aging. The temperature cycling involves a 1-week freeze cycle at −7° C., followed by a 1-week thaw cycle at 25° C., and then repeating this freeze/cycle for a total temperature cycling time of 1 month.
# Upon completion of the accelerated aging process (i.e., 1 month of temperature cycling), transparent test samples are visually inspected in-situ in the transparent container to determine if HCA crystallization/precipitation occurred. For opaque and translucent samples, the entire test sample is removed from the container and transferred to a suitable transparent substrate (e.g., plastic film or glass plate) and formed into a thin film of no more than 1 mm thickness. The sample is covered with a second transparent substrate to inhibit the loss of volatile ingredients during inspection. A light source (e.g., LED lamp or the like) is used to backlight the sample to aid in visual inspection. HCA crystals will generally appear as a precipitate in the composition visible to the naked eye when observed by someone with 20/20 vision from 45 cm away. Any precipitate identified during visual observation may be further evaluated using a microscope capable of providing fluorescent birefringence observation with cross-polarized light to identify anisotropic crystals. Any anisotropic crystal that has a longest dimension of greater than 0.1 mm is identified as an HCA crystal and the total number of HCA crystals is recorded. A test sample that contains no more than 1 HCA crystal is considered to be “free of HCA crystals” and is recorded as a “pass.” A test sample that contains more than 1 HCA crystal, is recorded as a “fail.”
# While it is desirable to formulate HCA containing compositions at lower pH to reduce 4-VP production and yellowing, the solubility of the HCA at low pH may not be sufficient for it to be added at levels needed for an effective skin care active.
# The test compositions shown in Table 8 were subjected to 2 freeze/thaw cycles at −7C/25C for 1 week/1 week, totaling one month of temperature cycling.
# The test compositions are shown below in Table 9. The test compositions were subjected to 2 freeze/thaw cycles at −7C/25C and 1 week/1 week, followed by a 90-day rest period at 25° C. After completion of the incubation period, the compositions were examined for the presence of HCA crystals, as described above.
# [2] = Table 7, hydrotropes; cited from earlier work
# [3] = Color method: change in yellowness (Δb*) after accelerated aging; format: physicochemical
# Text: This method can be used to determine the change in color of a product, material, or target portion of skin. A spectrophotometer (e.g., Spectrophotometer CM-3600A, Konica Minolta, Japan, or equivalent) is used to measure spectrometric data for CIE (International Commission on Illumination) specified illuminating and viewing conditions, and compute the associated tristimulus values, XYZ, based on CIE observer and a CIE illuminant standards. The ASTM standard for obtaining spectrometric data for Object-Color Evaluation is ASTM E1164-12(2017)el with the values and procedures for computing CIE tristimulus values from spectrometric data outlined in ASTM […]. The CIELAB color scale, also referred to as L*a*b*, are calculated from the tristimulus values as defined in ASTM […]. The L* denotes the sample's perceptual lightness. […] Portion samples are evaluated using a 10 mm path length in a plastic cell (e.g., CM-A131, Konica Minolta, Japan or equivalent), reflectance measurement, a 25.4 mm aperture opening at the specimen surface, and specular component excluded conditions with a standard white background. […] Synergy factor is calculated by dividing the observed value by the expected value. […]
smiles,measurement,setting,value
"O=C(O)c1ccc(O)cc1O [2,4-Dihydroxybenzoic Acid]",Crystallization,[1],Pass (A test sample that contains no more than 1 HCA crystal is considered to be “free of HCA crystals” and is recorded as a “pass.”)
O=C([O-])c1ccccc1O.[Na+] [Sodium salicylate],Crystallization,[1],Pass (A test sample that contains no more than 1 HCA crystal is considered to be “free of HCA crystals” and is recorded as a “pass.”)
"O=C(O)c1cccc(O)c1O [2,3-Dihydroxybenzoic acid]",Crystallization,[1],Pass (A test sample that contains no more than 1 HCA crystal is considered to be “free of HCA crystals” and is recorded as a “pass.”)
same,pKA,[2],2.56
"O=C(O)c1ccc(O)c(O)c1 [3,4-Dihydroxybenzoic Acid, reference compound]",Crystallization,[1],"Fail (A test sample that contains more than 1 HCA crystal, is recorded as a “fail.”)"
same,pKA,[2],4.16
COc1cccc(C(=O)O)c1O [3-Methoxysalicylic acid],Crystallization,[1],Pass (A test sample that contains no more than 1 HCA crystal is considered to be “free of HCA crystals” and is recorded as a “pass.”)
same,pKA,[2],2.55
"O=C([O-])C=Cc1ccccc1.[Na+] [Sodium Cinnamate, reference compound]",Crystallization,[1],"Fail (A test sample that contains more than 1 HCA crystal, is recorded as a “fail.”)"
O=S([O-])S(=O)(=O)[O-].[Na+].[Na+] [sodium metabisulfite],enhancement of effect of the oxygen quenching reducing agent at low pH vs. neutral pH,[3]; 3M40C,240%
same,enhancement of effect of the oxygen quenching reducing agent at low pH vs. neutral pH,[3]; 3W50C (printed 3WSOC),20%
